According to publication PMC6155691, “Synthesis and Biological Evaluation of Novel 8-Morpholinoimidazo[1,2-a]pyrazine Derivatives Bearing Phenylpyridine/Phenylpyrimidine-Carboxamides” (Molecules : A Journal of Synthetic Chemistry and Natural …, 2017):
Read-outs that look alike come from different tables or passages of the source.

Assays:
[1] = test system: A549 cell line (lung cancer); test: MTT cytotoxicity assay, A549; type: cell-based; settings: Homo sapiens, 72 h, average of two separate determinations, NA: No Activity
Description: (§1) The target compounds 12a–g, 13a–g and 14a–g were evaluated for their in vitro cytotoxicity against three cancer cell lines (A549, PC-3 and MCF-7) by the standard MTT assay, with compound II and GDC-0941 as positive controls. […] The results expressed as inhibition rates or IC50 values are summarized in Table 1 and Table 2, where the values are the average of at least two independent experiments.
(§2) The in vitro cytotoxic activity of all the compounds 12a–g, 13a–g and 14a–g was evaluated with the A549, PC-3 and MCF-7 cell lines by the standard MTT assay, with compounds II and GDC-0941 as positive controls. The cancer cell lines were cultured in minimum essential medium (MEM) supplement with 10% fetal bovine serum (FBS). Approximately 4 × 10^3 cells, suspended in MEM medium, were plated onto each well of a 96-well plate and incubated in 5% CO2 at 37 °C for 24 h. The test compounds at indicated final concentrations were added to the culture medium and the cell cultures were continued for 72 h. Fresh MTT was added to each well at a terminal concentration of 5 μg/mL and incubated with cells at 37 °C for 4 h. The formazan crystals were dissolved in 100 μL of DMSO in each well, and the absorbance at 492 nm (for the MTT formazan) and 630 nm (for the reference wavelength) was measured with an ELISA reader. All of the compounds were tested three times in each of the cell lines. The results expressed as inhibition rates or IC50 (half-maximal inhibitory concentration) were the averages of two determinations and calculated by using the Bacus Laboratories Incorporated Slide Scanner (Bliss) software (the Bacus Laboratories Inc. Slide Scanner (BLISS) system, Lombard, IL, USA).

[2] = test system: PC-3 cell line (prostate cancer); test: MTT cytotoxicity assay, PC-3; type: cell-based; settings: Homo sapiens, 72 h, average of two separate determinations, NA: No Activity
Description: as §1, §2

[3] = test system: MCF-7 cell line (breast cancer); test: MTT cytotoxicity assay, MCF-7; type: cell-based; settings: Homo sapiens, MCF7, 72 h, average of two separate determinations, NA: No Activity
Description: as §1, §2

PI3Kα kinase = PI3Kα kinase (Homo sapiens, UniProt P42336); test: Kinase-Glo Luminescent Kinase Assay, PI3Kα; type: biochemical
Chain of PI3Kα kinase (P42336 whole entry): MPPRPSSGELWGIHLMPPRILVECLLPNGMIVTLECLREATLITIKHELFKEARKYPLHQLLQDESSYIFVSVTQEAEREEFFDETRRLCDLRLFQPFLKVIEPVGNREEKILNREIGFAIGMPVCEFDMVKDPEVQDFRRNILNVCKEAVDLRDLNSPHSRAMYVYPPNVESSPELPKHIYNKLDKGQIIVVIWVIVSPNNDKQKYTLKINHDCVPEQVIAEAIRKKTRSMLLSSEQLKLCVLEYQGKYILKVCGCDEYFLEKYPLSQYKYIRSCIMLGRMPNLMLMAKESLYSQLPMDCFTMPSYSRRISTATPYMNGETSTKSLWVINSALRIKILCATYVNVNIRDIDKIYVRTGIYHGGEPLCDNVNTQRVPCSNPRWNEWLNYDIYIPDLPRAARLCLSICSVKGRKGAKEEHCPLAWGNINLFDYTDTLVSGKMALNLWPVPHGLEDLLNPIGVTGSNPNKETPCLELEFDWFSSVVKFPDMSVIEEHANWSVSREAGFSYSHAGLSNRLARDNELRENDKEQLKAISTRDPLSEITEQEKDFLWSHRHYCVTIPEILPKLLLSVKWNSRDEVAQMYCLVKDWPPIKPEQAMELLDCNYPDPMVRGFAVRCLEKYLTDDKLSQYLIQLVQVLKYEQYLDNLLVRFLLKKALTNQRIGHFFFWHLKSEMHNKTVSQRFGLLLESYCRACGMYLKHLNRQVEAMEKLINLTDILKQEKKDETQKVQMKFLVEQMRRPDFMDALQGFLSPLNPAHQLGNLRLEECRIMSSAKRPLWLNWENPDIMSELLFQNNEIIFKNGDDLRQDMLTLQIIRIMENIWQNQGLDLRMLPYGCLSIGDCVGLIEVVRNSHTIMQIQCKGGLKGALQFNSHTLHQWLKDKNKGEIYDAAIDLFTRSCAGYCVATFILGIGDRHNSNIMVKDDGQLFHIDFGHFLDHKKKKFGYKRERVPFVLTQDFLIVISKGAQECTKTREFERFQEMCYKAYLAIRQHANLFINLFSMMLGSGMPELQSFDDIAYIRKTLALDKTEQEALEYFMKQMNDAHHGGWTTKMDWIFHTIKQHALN
Chain of PI3Kα kinase (P27986 whole entry partner): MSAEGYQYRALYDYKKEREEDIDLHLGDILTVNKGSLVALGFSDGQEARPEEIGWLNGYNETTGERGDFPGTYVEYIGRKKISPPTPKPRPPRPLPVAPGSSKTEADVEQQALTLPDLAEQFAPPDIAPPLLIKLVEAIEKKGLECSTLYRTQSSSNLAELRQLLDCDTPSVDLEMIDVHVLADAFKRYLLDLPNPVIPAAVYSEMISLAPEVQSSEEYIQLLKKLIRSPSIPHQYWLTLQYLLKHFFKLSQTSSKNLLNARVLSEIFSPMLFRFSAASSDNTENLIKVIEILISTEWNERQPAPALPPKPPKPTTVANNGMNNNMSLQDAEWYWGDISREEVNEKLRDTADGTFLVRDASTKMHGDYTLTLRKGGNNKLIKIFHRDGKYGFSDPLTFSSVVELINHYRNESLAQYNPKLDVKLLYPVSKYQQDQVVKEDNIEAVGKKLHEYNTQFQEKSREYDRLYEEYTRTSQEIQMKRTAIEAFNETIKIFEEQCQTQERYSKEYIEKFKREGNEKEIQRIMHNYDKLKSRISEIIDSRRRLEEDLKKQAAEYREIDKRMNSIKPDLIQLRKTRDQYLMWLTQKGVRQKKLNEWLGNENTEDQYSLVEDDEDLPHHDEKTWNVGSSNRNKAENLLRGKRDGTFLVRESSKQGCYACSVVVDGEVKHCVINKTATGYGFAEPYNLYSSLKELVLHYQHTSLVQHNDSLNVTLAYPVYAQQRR

PI3Kα = settings: cited from earlier work
mTOR = test system: mTOR; design: method as in PMID 17339109; settings: read-out: IC50 against mTOR; cited from earlier work

SMILES	melting point [°C]	IC50 [1] [µM]	IC50 [2] [µM]	IC50 [3] [µM]	further results
O=C(Nc1ccc(-c2cn3ccnc3c(N3CCOCC3)n2)cc1)c1ccc(-c2ccccc2)cn1 [12a]	268 to 270	58.7 ± 1.99	50.3 ± 2.04	–	–
O=C(Nc1ccc(-c2cn3ccnc3c(N3CCOCC3)n2)cc1)c1ccc(-c2cccc(F)c2)cn1 [12b, 5-(3-Fluorophenyl)-N-(4-(8-morpholinoimidazo[1,2-a]pyrazin-6-yl)phenyl)picolinamide]	261 to 264	–	–	–	–
O=C(Nc1ccc(-c2cn3ccnc3c(N3CCOCC3)n2)cc1)c1ccc(-c2ccc(F)cc2F)cn1 [12c, 5-(2,4-Difluorophenyl)-N-(4-(8-morpholinoimidazo[1,2-a]pyrazin-6-yl)phenyl)picolinamide]	255 to 257	–	–	–	–
O=C(Nc1ccc(-c2cn3ccnc3c(N3CCOCC3)n2)cc1)c1ccc(-c2ccc(C(F)(F)F)cc2)cn1 [12d, N-(4-(8-Morpholinoimidazo[1,2-a]pyrazin-6-yl)phenyl)-5-(4-(trifluoromethyl)phenyl)picolinamide]	233 to 235	15.3 ± 0.88	69.7 ± 1.13	–	–
COc1ccc(-c2ccc(C(=O)Nc3ccc(-c4cn5ccnc5c(N5CCOCC5)n4)cc3)nc2)cc1 [12e, 5-(4-Methoxyphenyl)-N-(4-(8-morpholinoimidazo[1,2-a]pyrazin-6-yl)phenyl)picolinamide]	255 to 257	–	–	–	–
Cc1cccc(-c2ccc(C(=O)Nc3ccc(-c4cn5ccnc5c(N5CCOCC5)n4)cc3)nc2)c1 [12f, N-(4-(8-Morpholinoimidazo[1,2-a]pyrazin-6-yl)phenyl)-5-(m-tolyl)picolinamide]	241 to 243	19.1 ± 1.1	26.8 ± 1.47	–	–
Cc1ccc(-c2ccc(C(=O)Nc3ccc(-c4cn5ccnc5c(N5CCOCC5)n4)cc3)nc2)cc1 [12g, N-(4-(8-Morpholinoimidazo[1,2-a]pyrazin-6-yl)phenyl)-5-(p-tolyl)picolinamide]	258 to 260	68.1 ± 0.89	42.3 ± 0.86	–	–
O=C(Nc1ccc(-c2cn3ccnc3c(N3CCOCC3)n2)cc1)c1cc(-c2ccccc2)ccn1 [13a, N-(4-(8-Morpholinoimidazo[1,2-a]pyrazin-6-yl)phenyl)-4-phenylpicolinamide]	261 to 262	–	–	–	–
O=C(Nc1ccc(-c2cn3ccnc3c(N3CCOCC3)n2)cc1)c1cc(-c2cccc(F)c2)ccn1 [13b, 4-(3-Fluorophenyl)-N-(4-(8-morpholinoimidazo[1,2-a]pyrazin-6-yl)phenyl)picolinamide]	237 to 239	–	–	–	–
O=C(Nc1ccc(-c2cn3ccnc3c(N3CCOCC3)n2)cc1)c1cc(-c2ccc(F)cc2F)ccn1 [13c, 4-(2,4-Difluorophenyl)-N-(4-(8-morpholinoimidazo[1,2-a]pyrazin-6-yl)phenyl)picolinamide]	266 to 267	–	–	–	–
O=C(Nc1ccc(-c2cn3ccnc3c(N3CCOCC3)n2)cc1)c1cc(-c2ccc(C(F)(F)F)cc2)ccn1 [13d, N-(4-(8-Morpholinoimidazo[1,2-a]pyrazin-6-yl)phenyl)-4-(4-(trifluoromethyl)phenyl)picolinamide]	269 to 272	42 ± 1.49	55.6 ± 1.32	62.5 ± 1.99	–
COc1ccc(-c2ccnc(C(=O)Nc3ccc(-c4cn5ccnc5c(N5CCOCC5)n4)cc3)c2)cc1 [13e, 4-(4-Methoxyphenyl)-N-(4-(8-morpholinoimidazo[1,2-a]pyrazin-6-yl)phenyl)picolinamide]	257 to 260	23.9 ± 0.81	59.7 ± 2.22	74.9 ± 1.14	–
Cc1cccc(-c2ccnc(C(=O)Nc3ccc(-c4cn5ccnc5c(N5CCOCC5)n4)cc3)c2)c1 [13f, N-(4-(8-Morpholinoimidazo[1,2-a]pyrazin-6-yl)phenyl)-4-(m-tolyl)picolinamide]	233 to 234	10.5 ± 0.82	65.61 ± 0.52	74.2 ± 1.86	–
Cc1ccc(-c2ccnc(C(=O)Nc3ccc(-c4cn5ccnc5c(N5CCOCC5)n4)cc3)c2)cc1 [13g, N-(4-(8-Morpholinoimidazo[1,2-a]pyrazin-6-yl)phenyl)-4-(p-tolyl)picolinamide]	271 to 273	11.2 ± 1.08	–	7.89 ± 0.81	–
CS(=O)(=O)N1CCN(Cc2cc3nc(-c4cccc5[nH]ncc45)nc(N4CCOCC4)c3s2)CC1 [GDC-0941, 2-(1H-Indazol-4-yl)-6-(4-methanesulfonyl-piperazin-1-ylmethyl)-4-morpholin-4-yl-thieno[3,2-d]pyrimidine, reference compound]	–	6.99 ± 0.21	0.2 ± 0.08	0.07 ± 0.03	–

Continued, in another order:

melting point [°C]	SMILES	IC50 [1] [µM]	IC50 [2] [µM]	IC50 [3] [µM]	further results
272 to 275	O=C(Nc1ccc(-c2cn3ccnc3c(N3CCOCC3)n2)cc1)c1cc(-c2ccccc2)ncn1 [14a, N-(4-(8-Morpholinoimidazo[1,2-a]pyrazin-6-yl)phenyl)-6-phenylpyrimidine-4-carboxamide]	10.8 ± 1.62	–	–	–
222 to 225	Cc1ccc(-c2cc(C(=O)Nc3ccc(-c4cn5ccnc5c(N5CCOCC5)n4)cc3)ncn2)cc1 [14b, N-(4-(8-Morpholinoimidazo[1,2-a]pyrazin-6-yl)phenyl)-6-(p-tolyl)pyrimidine-4-carboxamide]	8.88 ± 0.97	25 ± 1.19	6.69 ± 2.04	inhibition at 10 µM (PI3Kα kinase; at 10 μM, Kinase-Glo, average of two separate determinations, read-out: PI3Kα 10 μM Inhibitory %): 58 ± 4.4%
269 to 271	COc1ccc(-c2cc(C(=O)Nc3ccc(-c4cn5ccnc5c(N5CCOCC5)n4)cc3)ncn2)cc1 [14c, 6-(4-Methoxyphenyl)-N-(4-(8-morpholinoimidazo[1,2-a]pyrazin-6-yl)phenyl)pyrimidine-4-carboxamide]	6.39 ± 1.04	12.7 ± 0.95	10.2 ± 1.62	IC50 (PI3Kα kinase; Kinase-Glo, average of two separate determinations): 1.25 ± 0.13 µM; fold more active than lead compound II against PI3Kα kinase (PI3Kα kinase; ratio of IC50 values, 7.39 μM vs 1.25 μM): 6 fold
221 to 223	O=C(Nc1ccc(-c2cn3ccnc3c(N3CCOCC3)n2)cc1)c1cc(-c2ccc(Br)cc2)ncn1 [14d, 6-(4-Bromophenyl)-N-(4-(8-morpholinoimidazo[1,2-a]pyrazin-6-yl)phenyl)pyrimidine-4-carboxamide]	14.4 ± 1.01	37.1 ± 0.97	–	–
235 to 237	O=C(Nc1ccc(-c2cn3ccnc3c(N3CCOCC3)n2)cc1)c1cc(-c2ccc(Cl)cc2)ncn1 [14e, 6-(4-Chlorophenyl)-N-(4-(8-morpholinoimidazo[1,2-a]pyrazin-6-yl)phenyl)pyrimidine-4-carboxamide]	17.4 ± 1.01	–	–	–
259 to 260	O=C(Nc1ccc(-c2cn3ccnc3c(N3CCOCC3)n2)cc1)c1cc(-c2ccc(F)cc2)ncn1 [14f, 6-(4-Fluorophenyl)-N-(4-(8-morpholinoimidazo[1,2-a]pyrazin-6-yl)phenyl)pyrimidine-4-carboxamide]	58.2 ± 4.67	–	47.1	–
278 to 281	O=C(Nc1ccc(-c2cn3ccnc3c(N3CCOCC3)n2)cc1)c1cc(-c2ccc(C(F)(F)F)cc2)ncn1 [14g, N-(4-(8-Morpholinoimidazo[1,2-a]pyrazin-6-yl)phenyl)-6-(4-(trifluoromethyl)phenyl)pyrimidine-4-carboxamide]	–	96.6 ± 2.58	–	–
